Data as given in the NIST ThermoML archive (doi:10.1016/j.fluid.2013.07.012).
± gives the expanded uncertainty stated by the source.

Experiment: xn = mol fraction of the nth substance listed
Conditions: 101 kPa, Liquid, Direct current cell with electrodes

## C[N+](C)(C)CCO.[Cl-] [choline chloride] + OCCO
298.15 K, x1 = 0.28
  electrical conductivity: 0.832 ± 0.0094 S/m
298.15 K, x1 = 0.34
  electrical conductivity: 0.733 ± 0.012 S/m
298.15 K, x1 = 0.36
  electrical conductivity: 0.68 ± 0.0094 S/m
303.15 K, x1 = 0.28
  electrical conductivity: 1.067 ± 0.0075 S/m
303.15 K, x1 = 0.34
  electrical conductivity: 1.019 ± 0.0082 S/m
303.15 K, x1 = 0.36
  electrical conductivity: 0.9138 ± 0.0081 S/m
308.15 K, x1 = 0.28
  electrical conductivity: 1.207 ± 0.007 S/m
308.15 K, x1 = 0.34
  electrical conductivity: 1.141 ± 0.0068 S/m
308.15 K, x1 = 0.36
  electrical conductivity: 1.086 ± 0.0076 S/m
313.15 K, x1 = 0.28
  electrical conductivity: 1.413 ± 0.009 S/m
313.15 K, x1 = 0.34
  electrical conductivity: 1.355 ± 0.009 S/m
313.15 K, x1 = 0.36
  electrical conductivity: 1.294 ± 0.0079 S/m
318.15 K, x1 = 0.28
  electrical conductivity: 1.656 ± 0.0077 S/m
318.15 K, x1 = 0.34
  electrical conductivity: 1.589 ± 0.0073 S/m
318.15 K, x1 = 0.36
  electrical conductivity: 1.479 ± 0.0068 S/m
323.15 K, x1 = 0.28
  electrical conductivity: 1.798 ± 0.0094 S/m
323.15 K, x1 = 0.34
  electrical conductivity: 1.718 ± 0.0087 S/m
323.15 K, x1 = 0.36
  electrical conductivity: 1.633 ± 0.0072 S/m
328.15 K, x1 = 0.28
  electrical conductivity: 2.126 ± 0.013 S/m
328.15 K, x1 = 0.34
  electrical conductivity: 2.023 ± 0.012 S/m
328.15 K, x1 = 0.36
  electrical conductivity: 1.839 ± 0.0076 S/m
333.15 K, x1 = 0.28
  electrical conductivity: 2.425 ± 0.0078 S/m
333.15 K, x1 = 0.34
  electrical conductivity: 2.299 ± 0.008 S/m
333.15 K, x1 = 0.36
  electrical conductivity: 2.01 ± 0.0068 S/m
338.15 K, x1 = 0.28
  electrical conductivity: 2.515 ± 0.0041 S/m
338.15 K, x1 = 0.34
  electrical conductivity: 2.42 ± 0.01 S/m
338.15 K, x1 = 0.36
  electrical conductivity: 2.177 ± 0.0068 S/m
343.15 K, x1 = 0.28
  electrical conductivity: 2.627 ± 0.0053 S/m
343.15 K, x1 = 0.34
  electrical conductivity: 2.56 ± 0.0058 S/m
343.15 K, x1 = 0.36
  electrical conductivity: 2.347 ± 0.006 S/m
348.15 K, x1 = 0.28
  electrical conductivity: 2.78 ± 0.0049 S/m
348.15 K, x1 = 0.34
  electrical conductivity: 2.707 ± 0.005 S/m
348.15 K, x1 = 0.36
  electrical conductivity: 2.475 ± 0.005 S/m
353.15 K, x1 = 0.28
  electrical conductivity: 2.869 ± 0.004 S/m
353.15 K, x1 = 0.34
  electrical conductivity: 2.8072 ± 0.0009 S/m
353.15 K, x1 = 0.36
  electrical conductivity: 2.604 ± 0.0052 S/m

## C[N+](C)(C)CCO.[Cl-] [choline chloride] + OCC(O)CO
298.15 K, x1 = 0.25
  electrical conductivity: 0.1463 ± 0.0007 S/m
298.15 K, x1 = 0.34
  electrical conductivity: 0.1749 ± 0.0013 S/m
298.15 K, x1 = 0.5
  electrical conductivity: 0.1929 ± 0.0012 S/m
303.15 K, x1 = 0.25
  electrical conductivity: 0.1553 ± 0.0013 S/m
303.15 K, x1 = 0.34
  electrical conductivity: 0.1951 ± 0.0017 S/m
303.15 K, x1 = 0.5
  electrical conductivity: 0.219 ± 0.0025 S/m
308.15 K, x1 = 0.25
  electrical conductivity: 0.203 ± 0.0021 S/m
308.15 K, x1 = 0.34
  electrical conductivity: 0.2549 ± 0.0022 S/m
308.15 K, x1 = 0.5
  electrical conductivity: 0.3161 ± 0.003 S/m
313.15 K, x1 = 0.25
  electrical conductivity: 0.257 ± 0.002 S/m
313.15 K, x1 = 0.34
  electrical conductivity: 0.3004 ± 0.0029 S/m
313.15 K, x1 = 0.5
  electrical conductivity: 0.368 ± 0.003 S/m
318.15 K, x1 = 0.25
  electrical conductivity: 0.3112 ± 0.0026 S/m
318.15 K, x1 = 0.34
  electrical conductivity: 0.399 ± 0.0043 S/m
318.15 K, x1 = 0.5
  electrical conductivity: 0.4603 ± 0.0044 S/m
323.15 K, x1 = 0.25
  electrical conductivity: 0.3816 ± 0.0035 S/m
323.15 K, x1 = 0.34
  electrical conductivity: 0.512 ± 0.004 S/m
323.15 K, x1 = 0.5
  electrical conductivity: 0.5864 ± 0.0042 S/m
328.15 K, x1 = 0.25
  electrical conductivity: 0.4811 ± 0.0039 S/m
328.15 K, x1 = 0.34
  electrical conductivity: 0.6046 ± 0.0042 S/m
328.15 K, x1 = 0.5
  electrical conductivity: 0.6668 ± 0.0039 S/m
333.15 K, x1 = 0.25
  electrical conductivity: 0.5757 ± 0.0039 S/m
333.15 K, x1 = 0.34
  electrical conductivity: 0.7187 ± 0.0043 S/m
333.15 K, x1 = 0.5
  electrical conductivity: 0.7805 ± 0.0047 S/m
338.15 K, x1 = 0.25
  electrical conductivity: 0.6717 ± 0.0041 S/m
338.15 K, x1 = 0.34
  electrical conductivity: 0.816 ± 0.004 S/m
338.15 K, x1 = 0.5
  electrical conductivity: 0.898 ± 0.004 S/m
343.15 K, x1 = 0.25
  electrical conductivity: 0.7805 ± 0.0052 S/m
343.15 K, x1 = 0.34
  electrical conductivity: 0.8955 ± 0.005 S/m
343.15 K, x1 = 0.5
  electrical conductivity: 0.9863 ± 0.0052 S/m
348.15 K, x1 = 0.25
  electrical conductivity: 0.9286 ± 0.006 S/m
348.15 K, x1 = 0.34
  electrical conductivity: 1.063 ± 0.0065 S/m
348.15 K, x1 = 0.5
  electrical conductivity: 1.155 ± 0.0062 S/m
353.15 K, x1 = 0.25
  electrical conductivity: 1.08 ± 0.01 S/m
353.15 K, x1 = 0.34
  electrical conductivity: 1.219 ± 0.0047 S/m
353.15 K, x1 = 0.5
  electrical conductivity: 1.295 ± 0.0057 S/m

## CCN(CC)CCO.Cl [2-(diethylamino)ethanol hydrochloride] + OCC(O)CO
298.15 K, x1 = 0.2
  electrical conductivity: 0.0487 ± 0.0013 S/m
298.15 K, x1 = 0.25
  electrical conductivity: 0.0602 ± 0.0016 S/m
298.15 K, x1 = 0.34
  electrical conductivity: 0.075 ± 0.002 S/m
303.15 K, x1 = 0.2
  electrical conductivity: 0.078 ± 0.001 S/m
303.15 K, x1 = 0.25
  electrical conductivity: 0.0958 ± 0.0011 S/m
303.15 K, x1 = 0.34
  electrical conductivity: 0.118 ± 0.0019 S/m
308.15 K, x1 = 0.2
  electrical conductivity: 0.11 ± 0.0014 S/m
308.15 K, x1 = 0.25
  electrical conductivity: 0.104 ± 0.0013 S/m
308.15 K, x1 = 0.34
  electrical conductivity: 0.164 ± 0.0019 S/m
313.15 K, x1 = 0.2
  electrical conductivity: 0.139 ± 0.0017 S/m
313.15 K, x1 = 0.25
  electrical conductivity: 0.156 ± 0.0022 S/m
313.15 K, x1 = 0.34
  electrical conductivity: 0.207 ± 0.0022 S/m
318.15 K, x1 = 0.2
  electrical conductivity: 0.188 ± 0.002 S/m
318.15 K, x1 = 0.25
  electrical conductivity: 0.211 ± 0.0022 S/m
318.15 K, x1 = 0.34
  electrical conductivity: 0.2716 ± 0.0027 S/m
323.15 K, x1 = 0.2
  electrical conductivity: 0.2357 ± 0.0018 S/m
323.15 K, x1 = 0.25
  electrical conductivity: 0.264 ± 0.0027 S/m
323.15 K, x1 = 0.34
  electrical conductivity: 0.3381 ± 0.0024 S/m
328.15 K, x1 = 0.2
  electrical conductivity: 0.2716 ± 0.0019 S/m
328.15 K, x1 = 0.25
  electrical conductivity: 0.3426 ± 0.003 S/m
328.15 K, x1 = 0.34
  electrical conductivity: 0.3903 ± 0.0031 S/m
333.15 K, x1 = 0.2
  electrical conductivity: 0.3246 ± 0.0026 S/m
333.15 K, x1 = 0.25
  electrical conductivity: 0.4086 ± 0.003 S/m
333.15 K, x1 = 0.34
  electrical conductivity: 0.4878 ± 0.0038 S/m
338.15 K, x1 = 0.2
  electrical conductivity: 0.3962 ± 0.0029 S/m
338.15 K, x1 = 0.25
  electrical conductivity: 0.4916 ± 0.0034 S/m
338.15 K, x1 = 0.34
  electrical conductivity: 0.5754 ± 0.0033 S/m
343.15 K, x1 = 0.2
  electrical conductivity: 0.4646 ± 0.0028 S/m
343.15 K, x1 = 0.25
  electrical conductivity: 0.5748 ± 0.0032 S/m
343.15 K, x1 = 0.34
  electrical conductivity: 0.6521 ± 0.004 S/m
348.15 K, x1 = 0.2
  electrical conductivity: 0.5335 ± 0.003 S/m
348.15 K, x1 = 0.25
  electrical conductivity: 0.6474 ± 0.0028 S/m
348.15 K, x1 = 0.34
  electrical conductivity: 0.7754 ± 0.0052 S/m
353.15 K, x1 = 0.2
  electrical conductivity: 0.6095 ± 0.0031 S/m
353.15 K, x1 = 0.25
  electrical conductivity: 0.71 ± 0.01 S/m
353.15 K, x1 = 0.34
  electrical conductivity: 0.9109 ± 0.0055 S/m
